From publication PMC9352556, “Glycogen synthase kinase homolog Rim11 regulates lipid synthesis through the phosphorylation of Pah1 phosphatidate phosphatase in yeast” (The Journal of Biological Chemistry, 2022)

T1: Pah1 (Saccharomyces cerevisiae, UniProt P32567)
T1 construct: unphosphorylated
T1 sequence (P32567 1-862): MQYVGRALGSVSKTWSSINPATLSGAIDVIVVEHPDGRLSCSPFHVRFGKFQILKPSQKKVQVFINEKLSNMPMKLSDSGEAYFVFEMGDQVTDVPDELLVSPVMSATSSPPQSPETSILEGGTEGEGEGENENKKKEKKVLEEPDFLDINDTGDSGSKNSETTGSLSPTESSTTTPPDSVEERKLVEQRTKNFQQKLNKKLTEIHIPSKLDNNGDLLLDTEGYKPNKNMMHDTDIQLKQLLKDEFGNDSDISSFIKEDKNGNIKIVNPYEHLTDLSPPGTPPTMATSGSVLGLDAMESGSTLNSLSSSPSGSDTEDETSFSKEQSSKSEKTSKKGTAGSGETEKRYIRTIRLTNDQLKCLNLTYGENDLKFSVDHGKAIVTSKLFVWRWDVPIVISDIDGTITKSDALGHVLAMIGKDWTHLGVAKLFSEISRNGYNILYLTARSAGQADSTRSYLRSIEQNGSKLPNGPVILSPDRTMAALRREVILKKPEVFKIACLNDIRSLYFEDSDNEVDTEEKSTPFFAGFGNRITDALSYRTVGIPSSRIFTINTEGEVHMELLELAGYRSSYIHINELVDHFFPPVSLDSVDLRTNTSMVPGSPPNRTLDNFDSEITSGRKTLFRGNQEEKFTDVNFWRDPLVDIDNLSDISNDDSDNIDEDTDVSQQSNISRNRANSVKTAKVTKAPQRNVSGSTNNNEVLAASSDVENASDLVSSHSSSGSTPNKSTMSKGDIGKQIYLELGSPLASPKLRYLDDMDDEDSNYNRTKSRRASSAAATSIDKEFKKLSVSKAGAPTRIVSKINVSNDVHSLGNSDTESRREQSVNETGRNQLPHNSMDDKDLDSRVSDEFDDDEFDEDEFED


Legend:
Pah1 = biological target: T1, Pah1; assay: release of […] from […]PA, Triton X-100/PA mixed micelles; format: biochemical; settings: unphosphorylated Pah1; surface concentration of PA in micelles; cooperative, n = 3.4; 1 mM MgCl2, pH 7.5, 30 °C; labelled compound
purified protein = substrate: Nc1ncnc2c1ncn2[C@@H]1O[C@H](COP(=O)(O)OP(=O)(O)OP(=O)(O)O)[C@@H](O)[C@H]1O; assay: purified protein; format: biochemical, Saccharomyces cerevisiae; settings: co-substrate 0.25 μM E. coli-expressed Pah1, 10 mM MgCl2, pH 7.5, 30 °C, labelled compound

Row | Molecule | Km (Pah1) [mol %] | Km (purified protein) [µM]
1 | phosphatidate | 4.2 | 
2 | Rim11 (Saccharomyces cerevisiae S288C) (protein, purified from S. cerevisiae (pSK001, pYES2); endogenously phosphorylated (Tyr199)) MNIQSNNSPNLSNNIVSKQVYYAHPPPTIDPNDPVQISFPTTEVVGHGSFGVVFATVIQETNEKVAIKKVLQDKRFKNRELEIMKMLSHINIIDLKYFFYERDSQDEIYLNLILEYMPQSLYQRLRHFVHQRTPMSRLEIKYYMFQLFKSLNYLHHFANVCHRDIKPQNLLVDPETWSLKLCDFGSAKQLKPTEPNVSYICSRYYRAPELIFGATNYTNQIDIWSSGCVMAELLLGQPMFPGESGIDQLVEIIKILGTPSKQEICSMNPNYMEHKFPQIKPIPLSRVFKKEDDQTVEFLADVLKYDPLERFNALQCLCSPYFDELKLDDGKINQITTDLKLLEFDENVELGHLSPDELSSVKKKLYPKSK |  | 30
